In US8119841B2 (Novartis AG, priority 2006, dated 2012):

Experiments:
[1] = dynamic vapor sorption isotherm; assay type: physicochemical; conditions: for reversibility of hygroscopicity: up to 60% R.H. at 25° C.
Source text: B) Dynamic Vapor Sorption Isotherm of Modification A, Modification B and Amorphous Material: In the following tables 7 and 8, R.H. stands for Relative Humidity, Sorpt. for Sorption and Desorpt. for Desorption.

[2] = equilibration in solvents, solid investigated by XRPD; assay type: physicochemical; design: key to XRPD after equilibration: +: change detected; −: no change detected; //: not carried out as substance too soluble; conditions: for change of the form: in cyclohexane or n-heptane; for XRPD after equilibration: 25 degree Celsius
Experimental: Between 200 mg to 700 mg of drug substance are equilibrated with 0.5 to 1 ml of solvent for at least 24 h in a water bath at the determined temperature +/−0.1° C. After equilibration, the solutions are filtered. The solid part is investigated by XRPD (X-ray Powder Diffraction).

[3] = amorphous material kept under organic solvent vapor, XRPD; assay type: physicochemical; design: key: +: change detected; −: no change detected; //: not carried out as substance too soluble; conditions: room temperature, at least one week
Experimental: For example, about 100 mg of amorphous material are placed under organic solvent vapor for at least one week at room temperature. The solid material is investigated by XRPD (X-ray powder diffraction), and the following results are obtained: […]

[4] = XRPD during storage under nitrogen flow; assay type: physicochemical
Experimental: (§1) The aim is to evaluate the influence of the storage condition on the crystalline form of SPP100 hemifumarate For this purpose, two different experiments have been performed. The first one consists to submit SPP100 hemifumarate modification A to a nitrogen flow and to record at various time the corresponding XRPD pattern. During the second experiment the influence of relative humidity on the crystalline modification A is determined by XRPD measurement.

[5] = XRPD at various relative humidities; assay type: physicochemical
Experimental: as §1

[6] = heat of dissolution in water; assay type: physicochemical; conditions: about 100 mg in 100 ml of water, 25° C.; mean of three determinations
Experimental: About 100 mg of material is placed in a sealed glass ampoule. After equilibration at 25° C., the ampoule is broken in 100 ml of water.

[7] = stability of solvate single crystals to air and humidity; assay type: physicochemical
Experimental: Characterisation: Structurally, solvate forms SC and SD are characterized by single crystal X-ray diffraction. The single crystals are grown using heptane as antisolvent. The isopropanol and the ethanol solvate of SPP100 hemifumarate can be grown as small needles from isopropanol, or ethanol solution respectively, by precipitation with heptane antisolvent. As there the data quality is better, only the ethanol solvate form obtained from ethanol/heptane (so called SD, corresponding to Form D mentioned in Example 9) is discussed in detail. But from the data the conclusion can be drawn that the isopropanol solvate (so called SC) is isostructural to the ethanol solvate (when heptane is used as antisolvent). The solvate SD stoichiometry consists of one SPP100 molecule, 1/2 fumarate group and 3 solvent molecules.
They consist of a distinct channel structure along the crystallographic b-axis which occupies about 25% of the whole crystal structure volume. […] Hydrogen bonds can be found between SPP100 (hydroxyl group and protonated amine group of SPP100) and the fumarate group and between SPP100 molecules (protonated amine group and oxygen). Another H-bond exists between ethanol and SPP100 (oxygen and amine group). Dominating propagation vector of the H-bonds is the crystallographic b-axis. […]

[8] = test system: severely sodium-depleted marmoset monkeys; conditions: orally or intravenously; cited from earlier work
[9] = test system: patients with mild to moderate hypertension; conditions: aliskiren 75 mg to 300 mg; 4 weeks duration; cited from earlier work
[10] = test system: patients with NYHA class II-IV heart failure and LVEF <35%; conditions: in vivo; cited from earlier work

With `COCCCOc1cc(C[C@@H](C[C@H](N)[C@@H](O)C[C@H](C(=O)NCC(C)(C)C(N)=O)C(C)C)C(C)C)ccc1OC` [Amorphous, aliskiren hemifumarate] the hygroscopic behavior [1] was “strong hygroscopic behavior”, the reversibility of hygroscopicity [1] was “reversible” and the “change of the form” value [2] was “No change”. The “Modification obtained by XRPD” value ([3]; 1-hexanol vapor) was “+ Typ V”, the “Modification obtained by XRPD” value ([3]; 2-propanol vapor) was “+ Typ V” and the “Modification obtained by XRPD” value ([3]; Acetonitrile vapor) was “+ Typ. IV”. The “Modification obtained by XRPD” value ([3]; Dimethylformamide vapor) was “Mainly amorphous”, the “Modification obtained by XRPD” value ([3]; Ethanol vapor) was “Amorphous + Typ. V” and the “Modification obtained by XRPD” value ([3]; Ethyl acetate vapor) was “+ amorphous + small amount of Typ. III”. The “Modification obtained by XRPD” value ([3]; Methyl acetate vapor) was “+ Typ I”, the “Modification obtained by XRPD” value ([3]; TBME vapor) was “−” and the “Modification obtained by XRPD” value ([3]; Tetrahydrofurane vapor) was “+ Typ III”. The “Modification obtained by XRPD” value ([3]; Toluene vapor) was “−” and the “Modification obtained by XRPD” value ([3]; n-butanol vapor) was “+ Typ. V”.

For `COCCCOc1cc(C[C@@H](C[C@H](N)[C@@H](O)C[C@H](C(=O)NCC(C)(C)C(N)=O)C(C)C)C(C)C)ccc1OC` [Modification A, aliskiren hemifumarate], the Change ([4]; 0.00 hour) was “none”, the XRPD ([4]; 0.00 hour) was “Mod A” and the Change ([4]; 2.25 hour) was “none”. The XRPD ([4]; 2.25 hour) was “Mod A”, the Change ([4]; 4.53 hour) was “none” and the XRPD ([4]; 4.53 hour) was “Mod A”. The Change ([4]; 7.80 hour) was “none”, the XRPD ([4]; 7.80 hour) was “Mod A” and the Change ([4]; 13.10 hour) was “none”. For the same compound, the XRPD ([4]; 13.10 hour) was “Mod A”, the Change ([4]; 14.75 hour) was “none” and the XRPD ([4]; 14.75 hour) was “Mod A”. For the same compound, the XRPD ([5]; 0 h, RH 0%*) was “Mod A”, the XRPD ([5]; 2.55 h, RH 10%) was “Mod A” and the XRPD ([5]; 5.01 h, RH 25%) was “Mod A”. The XRPD ([5]; 7.4 h, RH 35%) was “Mod A”, the XRPD ([5]; 9.8 h, RH 45%) was “Mod A” and the XRPD ([5]; 24.23 h, RH 45%) was “Mod A”. The XRPD ([5]; 26.86 h, RH 60%) was “Mod A”, the XRPD ([5]; 32.51 h, RH 70%) was “Mod A” and the XRPD ([5]; 47.6 h, RH 70%) was “Mod A”. For the same compound, the XRPD ([5]; 143.9 h, RH 70%) was “Mod A”, the hygroscopic behavior [1] was “strong hygroscopic behavior” and the “Sorpt. wt % 1st” value ([1]; R.H. 0 %) was 0.00 wt %. The reversibility of hygroscopicity [1] was “reversible”, the “heat of dissolution, Mean” value [6] was -31.6 kJ/mol and the XRPD after equilibration ([2]; Acetone) was “+ chemical reaction”. The XRPD after equilibration ([2]; Acetonitrile) was “−”, the XRPD after equilibration ([2]; Cyclohexane) was “−” and the XRPD after equilibration ([2]; DMAc) was “+ Typ III”. For the same compound, the XRPD after equilibration ([2]; Dioxane) was “+ Typ III”, the XRPD after equilibration ([2]; Isopropanol) was “+ Mod. B” and the XRPD after equilibration ([2]; Methylethylketone) was “+ chemical reaction”. For the same compound, the XRPD after equilibration ([2]; Pentanol) was “+ Typ V”, the XRPD after equilibration ([2]; TBME) was “+ amorphous + Typ II” and the XRPD after equilibration ([2]; Tetrahydrofurane) was “+ Typ III”. The XRPD after equilibration ([2]; Toluol) was “+ amorphous”, the “change of the form” value [2] was “No change” and the XRPD after equilibration ([2]; n-heptane) was “−”.

With `COCCCOc1cc(C[C@@H](C[C@H](N)[C@@H](O)C[C@H](C(=O)NCC(C)(C)C(N)=O)C(C)C)C(C)C)ccc1OC` [Modification B, aliskiren hemifumarate] the hygroscopic behavior [1] was “strong hygroscopic behavior”, the “hygroscopicity compared among the 3 modifications” value [1] was “least hygroscopic form” and the “Desorpt wt % 2nd” value ([1]; R.H. 0 %) was 0.04 wt %. For the same compound, the “Sorpt. wt % 1st” value ([1]; R.H. 0 %) was 0.00 wt %, the “Desorpt wt % 2nd” value ([1]; R.H. 10 %) was 2.33 wt % and the “Sorpt. wt % 1st” value ([1]; R.H. 10 %) was 0.94 wt %. The “Desorpt wt % 2nd” value ([1]; R.H. 20 %) was 3.17 wt %, the “Sorpt. wt % 1st” value ([1]; R.H. 20 %) was 1.69 wt % and the “Desorpt wt % 2nd” value ([1]; R.H. 30 %) was 3.76 wt %. For the same compound, the “Sorpt. wt % 1st” value ([1]; R.H. 30 %) was 2.53 wt %, the “Desorpt wt % 2nd” value ([1]; R.H. 40 %) was 4.47 wt % and the “Sorpt. wt % 1st” value ([1]; R.H. 40 %) was 3.68 wt %. For the same compound, the “Desorpt wt % 2nd” value ([1]; R.H. 50 %) was 5.65 wt %, the “Sorpt. wt % 1st” value ([1]; R.H. 50 %) was 5.52 wt % and the “Desorpt wt % 2nd” value ([1]; R.H. 60 %) was 7.68 wt %. The “Sorpt. wt % 1st” value ([1]; R.H. 60 %) was 7.68 wt %, the reversibility of hygroscopicity [1] was “reversible” and the “heat of dissolution, Mean” value [6] was -24.6 kJ/mol. The “change of the form” value [2] was “No change”.

In the case of `COCCCOc1cc(C[C@@H](C[C@H](N)[C@@H](O)C[C@H](C(=O)NCC(C)(C)C(N)=O)C(C)C)C(C)C)ccc1OC` [SC, aliskiren hemifumarate], the “stability of the structure to air and humidity” value [7] is reported as “very sensible to air and humidity and decompose rapidly”.

For `COCCCOc1cc(C[C@@H](C[C@H](N)[C@@H](O)C[C@H](C(=O)NCC(C)(C)C(N)=O)C(C)C)C(C)C)ccc1OC` [aliskiren, 2(S),4(S),5(S),7(S)-N-(3-amino-2,2-dimethyl-3-oxopropyl)-2,7-di(1-methylethyl)4-hydroxy-5-amino-8-[4-methoxy-3-(3-methoxy-propoxy)phenyl]-octanamide], the mean arterial pressure [8] is listed as “sustained reductions”, the “plasma concentrations of active and total renin” value [8] is listed as “significant increases” and the plasma renin activity [8] is listed as “complete inhibition”. For the same compound, the blood pressure [9] was “Dose dependent decreases”, the PRA [10] was “inhibited” and the “angiotensin II levels” value [10] was “Trends towards reduced”.

For `CCOC(=O)[C@H](CCc1ccccc1)N[C@@H](C)C(=O)N1[C@H](C(=O)O)C[C@@H]2CCC[C@@H]21` [ramipril], the PRA [10] is given as “increased”, the “angiotensin II levels” value [10] is given as “Trends towards reduced” and the “effects on hormonal parameters” value [10] is given as “No deleterious effects”.
